# In paper PMC3368886, “ATPase Cycle and DNA Unwinding Kinetics of RecG Helicase” (PLoS ONE, 2012):
# How the values were obtained:
# RecG [1] = target: T1, RecG (Thermotoga maritima, UniProt Q9WY48); assay: Steady-state ATPase rate measurements with phosphate biosensor MDCC-PBP; assay type: biochemical; settings: no DNA, 20°C, 10 nM RecG
# T1 construct: made in house
# T1 sequence (Q9WY48 1-780): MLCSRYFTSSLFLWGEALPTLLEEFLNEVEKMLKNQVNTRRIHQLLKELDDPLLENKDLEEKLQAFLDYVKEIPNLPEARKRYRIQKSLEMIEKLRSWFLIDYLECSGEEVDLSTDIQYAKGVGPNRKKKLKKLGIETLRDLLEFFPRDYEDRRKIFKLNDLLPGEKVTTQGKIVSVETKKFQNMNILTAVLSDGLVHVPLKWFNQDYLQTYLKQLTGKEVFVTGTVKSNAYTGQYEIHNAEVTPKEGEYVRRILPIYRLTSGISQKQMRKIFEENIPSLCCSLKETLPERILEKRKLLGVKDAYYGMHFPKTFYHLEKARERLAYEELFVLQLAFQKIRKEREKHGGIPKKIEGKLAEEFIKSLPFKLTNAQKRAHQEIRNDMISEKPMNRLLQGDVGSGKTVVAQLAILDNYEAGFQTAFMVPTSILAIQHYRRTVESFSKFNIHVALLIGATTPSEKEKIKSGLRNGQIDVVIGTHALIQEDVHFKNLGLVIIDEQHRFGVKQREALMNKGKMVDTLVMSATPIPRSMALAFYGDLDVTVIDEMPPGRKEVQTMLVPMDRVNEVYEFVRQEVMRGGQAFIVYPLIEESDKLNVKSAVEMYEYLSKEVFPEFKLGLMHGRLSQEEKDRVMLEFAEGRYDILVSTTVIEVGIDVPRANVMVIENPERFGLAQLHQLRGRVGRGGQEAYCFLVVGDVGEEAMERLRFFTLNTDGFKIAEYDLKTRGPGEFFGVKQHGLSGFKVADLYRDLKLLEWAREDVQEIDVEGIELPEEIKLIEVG
# RecG [2] = target: T1, RecG; parameters: method as in PMID 16363810; settings: much lower concentration of DNA; cited from earlier work
# RecG [3] = target: T1, RecG; assay: mantATP cleavage (acid quench) and Pi release in the absence of DNA; assay type: biochemical
# Experimental: (§1) As done for the RecG⋅DNA complex, measurements were also taken with an excess of RecG over mantATP (Figure S3B). A large, relative rapid, increase in mant fluorescence was observed followed by a small gradual increase. The rate constants are consistent with those at excess mantATP. Under the same conditions of excess RecG over mantATP, mantATP cleavage (acid quench) and Pi release were measured (Figure S3B). […] The cleavage step rate constant was 4×10^−4 s^−1, ∼10^3 slower than in the presence of DNA. […] The cleavage step was greatly stimulated by DNA.
# Supplementary file pone.0038270.s003.tif: Figure S3 Kinetic measurements in the absence of DNA. (A) Association kinetics with mantATP. Dependence of the observed rate constants on mantATP concentration from mixing 0.5 µM RecG with excess mantATP under the same conditions as Figure 3. Points shown are typically an average of three individual measurements. The best linear fit gives a slope of 0.4 (±0.15) µM^−1 s^−1 and intercept 1.7 (±0.6) s^−1. (B) Fluorescence trace upon mixing 2.5 µM RecG with 0.5 µM mantATP under the conditions of Figure 4. […] Note that as the fluorescence slowly increases beyond the time course, it was not possible to calibrate the ordinate. […] Pi release kinetics (continuous line) were measured for the same mixture containing 10 µM MDCC-PBP. […]
# RecG [4] = target: T1, RecG; assay: Titrations of RecG into fluorescent nucleotides in the absence of DNA; assay type: binding
# Experimental: The two phases of this fluorescence increase with excess RecG⋅DNA would therefore relate to formation of bound mantATP (1.5-fold intensity increase relative to free nucleotide) and bound mantADP (4.9-fold). This interpretation was supported by titrations of RecG into the fluorescent nucleotides in the absence of DNA.
# Steady-state fluorescence was measured using a Cary Eclipse fluorimeter (Varian) with a xenon light source. Absorbance spectroscopy was performed using a Beckman DU640 spectrophotometer.
# RecG⋅DNA(A40:B40) = target: T2, RecG⋅DNA(A40:B40) (Thermotoga maritima, UniProt Q9WY48); assay: Single turnover Pi release kinetics with MDCC-PBP; assay type: biochemical
# T2 construct: made in house
# T2 sequence (Q9WY48 1-780): T1 sequence (Q9WY48 1-780)
# Experimental: Using the phosphate biosensor, MDCC-PBP [13], the kinetics of Pi release were measured under the same conditions (Figure 4A). Fitting the trace by a lag then a single exponential increase gave rate constants of 3.3 s^−1 and 0.21 s^−1. This rate constant for the lag was similar to the observed rate constant for binding at this concentration. The exponential increase had the same rate constant for the slow phase of the mant fluorescence and for the quench-flow measurement of mantADP formation. Thus Pi release occurs rapidly, following the rate-determining cleavage step.
# Stopped-flow experiments were performed in a HiTech SF61DX2 apparatus (TgK Scientific Ltd, Bradford-on-Avon, UK) with a mercury-xenon light source and HiTech KinetAsyst 3 or Kinetic Studio 1 software. For MDCC-PBP fluorescence, the excitation wavelength used was 436 nm and a 455 nm cut-off filter (Schott glass) used to collect emitted light. The signal was calibrated using known concentrations of Pi. The solutions contained the Pi mop, to minimize phosphate contamination and comprising 0.01 unit ml^−1 bacterial purine nucleoside phosphorylase and 200 µM 7-methylguanosine. For mant fluorescence, 366 nm was used to excite and a 400 nm cut-off filter (Schott glass) used to collect light. Measurements of Cy3 fluorescence used 547 nm excitation and a 570 nm cut-off filter. In experiments described, the quoted concentrations are those in the mixing chamber, except where stated. Data were fitted to theoretical curves using the HiTech software or Grafit.
# RecG [5] = target: T1, RecG; assay: Stopped-flow mantATP binding in the absence of DNA
# Excerpt: The kinetics of specific steps of the ATPase cycle were investigated in the absence of DNA, to determine which are modulated by the interaction with DNA. For the association measurements between RecG and mantATP, RecG was mixed with excess mantATP in the stopped-flow apparatus and the fluorescence followed with time. Following fitting by single exponentials, there was a linear relationship between the observed rate constant and nucleotide concentration (Figure S3A).
# as §1
# Supplementary file pone.0038270.s003.tif: Figure S3 Kinetic measurements in the absence of DNA. (A) Association kinetics with mantATP. Dependence of the observed rate constants on mantATP concentration from mixing 0.5 µM RecG with excess mantATP under the same conditions as Figure 3. Points shown are typically an average of three individual measurements. The best linear fit gives a slope of 0.4 (±0.15) µM^−1 s^−1 and intercept 1.7 (±0.6) s^−1. (B) Fluorescence trace upon mixing 2.5 µM RecG with 0.5 µM mantATP under the conditions of Figure 4. The trace was fitted by an exponential and a slope giving rates of 0.42 (±0.12) s^−1 for the former. Note that as the fluorescence slowly increases beyond the time course, it was not possible to calibrate the ordinate. Inset: Hydrolysis and Pi release for these conditions. The circles represent single time points for a quenched-flow measurement of mantADP formation. Pi release kinetics (continuous line) were measured for the same mixture containing 10 µM MDCC-PBP. (TIF) Click here for additional data file.
# [6] = 0.5 µM mantATP, 2.5 µM RecG, 5 µM DNA
Compound,K m (RecG [1]),k cat (RecG [1]),K m previously reported (RecG [2]) [µM],k cat previously reported (RecG [2]) [s⁻¹],"cleavage step rate constant (RecG [3]; absence of DNA, excess RecG over mantATP) [s⁻¹]",cleavage slower than in the presence of DNA (RecG [3]; absence vs presence of DNA),increase in fluorescence on titration with RecG (RecG [4]) [fold],Pi release: rate constant of exponential increase (RecG⋅DNA(A40:B40); [6]) [s⁻¹],Pi release: rate constant of lag (RecG⋅DNA(A40:B40); [6]) [s⁻¹],"k +3 (Pi release) (RecG⋅DNA(A40:B40); 20°C, Table 2 summary) [s⁻¹]","intercept (dissociation) (RecG [5]; 0.5 µM RecG, excess mantATP)","second order association rate constant (slope) (RecG [5]; 0.5 µM RecG, excess mantATP)",rate of exponential fluorescence increase (RecG [5]; 2.5 µM RecG with 0.5 µM mantATP),Kd (RecG [5]; from intercept and slope) [µM]
Nc1ncnc2c1ncn2[C@@H]1O[C@H](COP(=O)(O)OP(=O)(O)OP(=O)(O)O)[C@@H](O)[C@H]1O [ATP],7.5 (±3.1) µM,0.2 (±0.1) s^−1,42,5.2,–,–,–,–,–,–,–,–,–,–
"CNc1ccccc1C(=O)O[C@H]1[C@@H](O)[C@H](n2cnc3c(N)ncnc32)O[C@@H]1COP(=O)(O)OP(=O)(O)OP(=O)(O)O [mantATP, 2′(3′)-O-(N-methylanthraniloyl)ATP]",–,–,–,–,0.0004,~10^3,1.3,0.21,3.3,>10,1.7 (±0.6) s^−1,0.4 (±0.15) µM^−1s^−1,0.42 (±0.12) s^−1,4.25
